Laboratory results taken from patent US6989386B2, “Pharmaceutically active ornithine derivatives, ammonium salts thereof and methods of making same” (Dana-Farber Cancer Institute, priority 2002, dated 2006).
Values belong to the compound of their own block, whether it stands above or below them.

Experiments:
[1] = target: T1, dihydrofolate reductase (DHFR) (Mus musculus, UniProt P00375); conditions: reported, Rosowsky et al., J. Med. Chem. 1986; cited from earlier work
T1 sequence (P00375 1-187): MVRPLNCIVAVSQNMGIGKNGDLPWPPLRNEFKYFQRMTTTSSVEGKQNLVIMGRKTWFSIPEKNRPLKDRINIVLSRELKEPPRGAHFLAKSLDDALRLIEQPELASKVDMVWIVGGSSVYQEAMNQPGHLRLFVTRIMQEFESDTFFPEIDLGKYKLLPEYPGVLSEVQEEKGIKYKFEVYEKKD

[2] = test system: folylpolyglutamate synthetase (FPGS); conditions: reported, Rosowsky et al., J. Med. Chem. 1986; cited from earlier work
cell growth in culture = conditions: reported, Rosowsky et al., J. Med. Chem. 1986; cited from earlier work

- Stability when dissolved in dilute ammonium hydroxide (dilute ammonium hydroxide solution): relatively stable
Structure (SMILES): Nc1nc(N)c2nc(CNc3ccc(C(=O)N[C@@H](CCCNC(=O)c4ccccc4C(=O)O)C(=O)O)cc3)cnc2n1 [compound 7, N^α-(4-Amino-4-deoxypteroyl)-N^δ-hemiphthaloyl-L-ornithine]

- Product decomposition on lyophilization of the ammonium hydroxide solution (lyophilization of dilute ammonium hydroxide solution): minimal
Structure (SMILES): N.N.Nc1nc(N)c2nc(CNc3ccc(C(=O)N[C@@H](CCCNC(=O)c4ccccc4C(=O)O)C(=O)O)cc3)cnc2n1 [compound 8, N^α-(4-Amino-4-deoxypteroyl)N^δ-hemiphthaloyl-L-ornithine ammonium salt]

Structure (SMILES): NCCC[C@H](NC(=O)c1ccc(NCc2cnc3nc(N)nc(N)c3n2)cc1)C(=O)O [APA-L-Orn, N^α-(4-amino-4-deoxypteroyl)-L-ornithine]
- Inhibition of dihydrofolate reductase (DHFR) [1]: potent inhibitor
- Inhibition of folylpolyglutamate synthetase (FPGS) [2]: potent inhibitor
- Inhibition of cell growth in culture (cell growth in culture): relatively inactive
